How the values were obtained:
[1] = Mammalian toxicity in vitro, MTT colorimetric method; assay type: cell-based, Murine; details: mouse, NCTC clone 929 fibroblasts, pH 7.2, NCTC clone 929 cells, up to 200 μM
Method: The synthesized compounds were evaluated for their anti-L. (L.) infantum activity on intracellular amastigotes following 96 h treatment, with standard drug miltefosine used as a control. […] Leishmania (L.) infantum (MHOM/BR/1972/LD) amastigotes were obtained by differential centrifugation from golden hamsters (Mesocricetus auratus) spleens with 60–70 days of infection and the number of parasites was determined by the Stauber method.[18] Murine conjunctive fibroblasts NCTC clone 929 (ATCC) were maintained in RPMI-1640 medium supplemented with 10% FBS at pH 7.2 and 37 °C in a humidified incubator with 5% CO2. Peritoneal macrophages were by obtained by washing the peritoneal cavity of BALB/c mice with RPMI-1640 medium supplemented with 10% FBS, pH 7.2 and maintained at 37 °C in a humidified incubator with 5% CO2. NCTC cells (6 × 10^4/well) were added to 96-well plates and maintained at 37 °C in a 5% CO2 humidified incubator for 96 h with compounds serially diluted (1.6 to 200 μM). […] The determination of CC50 and IC50 values was performed by sigmoid dose–response curves using the Graph Pad Prism 5 software. The samples were tested in duplicate and the assays were reproduced at least twice.

[2] = test system: Leishmania (L.) infantum intracellular amastigotes; test: Anti-L. (L.) infantum activity in vitro, intracellular amastigotes in peritoneal macrophages, infection index; assay type: cell-based; details: L. (L.) infantum intracellular amastigotes in BALB/c peritoneal macrophages, 96 h treatment, NA = inactive
Method: The synthesized compounds were evaluated for their anti-L. (L.) infantum activity on intracellular amastigotes following 96 h treatment, with standard drug miltefosine used as a control. […] Leishmania (L.) infantum (MHOM/BR/1972/LD) amastigotes were obtained by differential centrifugation from golden hamsters (Mesocricetus auratus) spleens with 60–70 days of infection and the number of parasites was determined by the Stauber method.[18] Murine conjunctive fibroblasts NCTC clone 929 (ATCC) were maintained in RPMI-1640 medium supplemented with 10% FBS at pH 7.2 and 37 °C in a humidified incubator with 5% CO2. Peritoneal macrophages were by obtained by washing the peritoneal cavity of BALB/c mice with RPMI-1640 medium supplemented with 10% FBS, pH 7.2 and maintained at 37 °C in a humidified incubator with 5% CO2. Peritoneal macrophages (1 × 10^5/well) were added in 16-well slide chambers (NUNC) and incubated overnight at 37 °C with 5% CO2. Subsequently, the cells were infected with L. (L.) infantum amastigotes (10 : 1 amastigotes/macrophage) for 24 h, treated with compounds serially diluted (6.25 to 50 μM) and incubated for 96 h at 37 °C with 5% CO2. Miltefosine was used as standard drug and untreated cells as a negative control. Slides were fixed with methanol, stained with Giemsa and observed under a light microscope.[19] […] The determination of CC50 and IC50 values was performed by sigmoid dose–response curves using the Graph Pad Prism 5 software. The samples were tested in duplicate and the assays were reproduced at least twice.

[3] = test system: T. cruzi trypomastigotes; set-up: method as in our previous work; details: ref our previous work; cited from earlier work

IC50 ([2]; Peritoneal macrophage, 96 h)	Compound	CC50 at 96 h [1]	also measured
	C=CCc1ccc(Oc2cc(CC=C)cc(OC)c2OCc2ccc(OC)cc2)c(OC)c1 [Compound 1]	> 200 µM	IC50 (μM) ± SD [2]: inactive; activity against T. cruzi trypomastigotes [3]: 4.0 ± 1.4 µM
	C=CCc1ccc(Oc2cc(CC=C)cc(OC)c2OCOC)c(OC)c1 [Compound 2]	> 200 µM	
4.1 ± 1.1 µM	C=CCc1ccc(Oc2cc(CC=C)cc(OC)c2OCCN2CCCC2)c(OC)c1 [Compound 4]	24.9 ± 2.6 µM	
9.6 ± 3.6 µM	C=CCc1ccc(Oc2cc(CC=C)cc(OC)c2OCCN2CCOCC2)c(OC)c1 [Compound 5]	63.7 ± 0.2 µM	
20.3 ± 5.9 µM	C=CCc1ccc(Oc2cc(CC=C)cc(OC)c2OCC(=O)N2CCCC2)c(OC)c1 [Compound 6]	52.9 ± 15.2 µM	
	C=CCc1ccc(Oc2cc(CC=C)cc(OC)c2OCC(=O)N2CCOCC2)c(OC)c1 [Compound 7]	112 ± 8.2 µM	
	C=CCc1cc(OC)cc(Oc2ccc(CC=C)cc2OC)c1 [Compound 8]	> 200 µM	
24.2 ± 18.2 µM	C=CCc1cc(OC)c(OCc2ccc(OC)cc2)c(Oc2ccccc2OC)c1 [Compound 9]	> 200 µM	
	C=CCc1ccc(Oc2cccc(OC)c2OCc2ccc(OC)cc2)c(OC)c1 [Compound 10]	> 200 µM	
32.7 ± 5 µM	C=CCc1cc(OC)c(OC(C)=O)c(Oc2ccccc2OC)c1 [Compound 11]	> 200 µM	
	C=CCc1ccc(Oc2cccc(OC)c2OC(C)=O)c(OC)c1 [Compound 12]	> 200 µM	
	C=CCc1cc(OC)c(OC)c(Oc2ccccc2OC)c1 [Compound 13]	> 200 µM	
	C=CCc1ccc(Oc2cccc(OC)c2OC)c(OC)c1 [Compound 14]	> 200 µM	
	C=CCc1cc(OC)c(O)c(Oc2ccccc2OC)c1 [Compound 15]	31.6 ± 11.3 µM	
	C=CCc1ccc(Oc2cccc(OC)c2O)c(OC)c1 [Compound 16]	> 200 µM	
	C=CCc1cc(OC)c(O)c(Oc2ccc(CCC)cc2OC)c1 [Compound 17]	42 ± 3.8 µM	
	C=CCc1ccc(Oc2cc(CCC)cc(OC)c2O)c(OC)c1 [Compound 18]	14.2 ± 0.1 µM	
	C=CCc1cc(OC)c(OC)c(Oc2ccc(CCC)cc2OC)c1 [Compound 19]	> 200 µM	
	C=CCc1cc(OC)c(OCc2ccc(OC)cc2)c(Oc2ccc(CCC)cc2OC)c1 [Compound 20]	> 200 µM	
	C=CCc1ccc(Oc2cc(CCC)cc(OC)c2OCc2ccc(OC)cc2)c(OC)c1 [Compound 21]	> 200 µM	

IC50 ([2]; Peritoneal macrophage, 96 h)	Compound	CC50 at 96 h [1]	also measured
	CCCc1ccc(Oc2cc(CCC)cc(OC)c2OCc2ccc(OC)cc2)c(OC)c1 [Compound 22]	> 200 µM	
	C=CCc1cc(OC)c(OCc2ccc(OC)cc2)c(Oc2ccc(CN3CCCC3)cc2OC)c1 [Compound 23]	6.2 ± 1.2 µM	
9.7 ± 2 µM	C=CCc1cc(OC)c(OCc2ccc(OC)cc2)c(Oc2ccc(CN3CCOCC3)cc2OC)c1 [Compound 24]	> 200 µM	
7.7 ± 0.8 µM	CCCc1cc(OC)c(OCc2ccc(OC)cc2)c(Oc2ccc(CN3CCOCC3)cc2OC)c1 [Compound 25]	74.4 ± 4.4 µM	
~3 µM	CCCc1cc(OC)c(OCc2ccc(OC)cc2)c(Oc2ccc(CN3CCCCC3)cc2OC)c1 [Compound 26]	14.5 ± 0.2 µM	IC50 [2]: 3.7 ± 0.5 µM
27.8 ± 7.4 µM	COc1ccc(COc2c(OC)cc(CN3CCOCC3)cc2Oc2ccc(CN3CCOCC3)cc2OC)cc1 [Compound 27]	74.4 ± 5.8 µM	
16.4 ± 4.3 µM	CCCc1ccc(Oc2cc(CN3CCOCC3)cc(OC)c2OCc2ccc(OC)cc2)c(OC)c1 [Compound 28]	> 200 µM	
13.2 ± 2.1 µM	CCCc1ccc(Oc2cc(CN3CCOCC3)cc(OC)c2OCc2ccc(C(F)(F)F)cc2)c(OC)c1 [Compound 29]	> 200 µM	
26.3 ± 3.2 µM	CCCc1ccc(Oc2cc(CN3CCOCC3)cc(OC)c2OCc2cc(OC)c(OC)c(OC)c2)c(OC)c1 [Compound 30]	> 200 µM	
	C=CCc1cc(OC)c(O)c(Oc2ccc(CN3CCOCC3)cc2OC)c1 [Compound 31]	51.4 ± 4.7 µM	IC50 (μM) ± SD [2]: no anti-parasitic activity
	C=CCc1cc(OC)c(O)c(Oc2ccc(CN3CCCC3)cc2OC)c1 [Compound 32]	43.3 ± 5.3 µM	IC50 (μM) ± SD [2]: no anti-parasitic activity
~3 µM	CCCc1ccc(Oc2cc(CN3CCCCC3)cc(OC)c2OCc2ccc(OC)cc2)cc1 [Compound 33]	22.7 ± 0.9 µM	
15.3 ± 1.9 µM	CCCc1ccc(Oc2cc(CN3CCOCC3)cc(OC)c2OCc2ccc(OC)cc2)cc1 [Compound 34]	> 200 µM	
	CCCc1ccc(OCc2ccc(OC)cc2)c(Oc2ccc(CN3CCOCC3)cc2OC)c1 [Compound 35]	33.8 ± 4.9 µM	IC50 (μM) ± SD [2]: inactive
	C=CCc1ccc(Oc2cc(CC=C)cc(OC)c2OCc2ccc(OC)cc2)cc1 [Compound 36]	> 200 µM	
	C=CCc1ccc(Oc2cc(CC=C)cc(OC)c2O)cc1 [Compound 37]	123 ± 9.4 µM	
	C=CCc1ccc(Oc2cc(CC=C)ccc2OCc2ccc(OC)cc2)c(OC)c1 [Compound 38]	> 200 µM	
	C=CCc1ccc(O)c(Oc2ccc(CC=C)cc2OC)c1 [Compound 39]	129 ± 5.2 µM	
6.5 ± 3 µM	CCCCCCCCCCCCCCCCOP(=O)([O-])OCC[N+](C)(C)C [Milt., miltefosine, reference compound]	120 ± 4.2 µM	

Source: publication PMC10357944 (RSC Medicinal Chemistry, 2023)
